Results: patent publication US7160897B2, “Therapeutic compounds” (SmithKline Beecham Corporation, priority 2000, dated 2007)

System: HSV-1
Experiment: HSV-1 replication in Vero 76 cells, viral DNA hybridization capture assay
Assay type: cell-based, herpes simplex virus 1
Settings: Human alphaherpesvirus 1; HSV-1 infected Vero 76 cells, MOI=0.001, 40–48 hours incubation, HSV DNA detected by hybridization/chemiluminescence
Description: Vero 76 cells were maintained in MEM with Earle's salts, L-glutamine, 8% FBS (Hyclone, A-1111-L) and 100 units/mL Penicillin-100 μg/mL Streptomycin. For assay conditions, FBS was reduced to 2%. Cells are seeded into 96-well tissue culture plates at a density of 5×10^4 cells/well after being incubated for 45 min at 37° C. in the presence of HSV-1 or HSV-2 (MOI=0.001). Test compounds are added to the wells and the plates are incubated at 37° C. for 40–48 hours. Cell lysates are prepared as follows: media was removed and replaced with 150 μL/well 0.2 N NaOH with 1% Igepal CA 630 or NP-40. Plates were incubated up to 14 days at room temperature in a humidified chamber to prevent evaporation.
For the detection probe, a gel-purified, digoxigenin-labeled, 710-bp PCR fragment of the HSV UL-15 sequence was utilized. PCR conditions included 0.5 μM primers, 180 μM dTTP, 20 μM dUTP-digoxigenin (Boehringer Mannheim 1558706), 200 μM each of dATP, dCTP, and dGTP, 1×PCR Buffer II (Perkin Elmer), 2.5 mM MgCl2, 0.025 units/μL of AmpliTaq Gold polymerase (Perkin Elmer), and 5 ng of gel-purified HSV DNA per 100 μL. Extension conditions were 10 min at 95° C., followed by 30 cycles of 95° C. for 1 min, 55° C. for 30 sec, and 72° C. for 2 min. The amplification was completed with a 10-min incubation at 72° C. Primers were selected to amplify a 728 bp probe spanning a section of the HSV1 UL15 open reading frame (nucleotides 249–977). Single-stranded transcripts were purified with Promega M13 Wizard kits. The final product was mixed 1:1 with a mixture of 6 M GuSCN, 100 mM EDTA and 200 μg/mL herring sperm DNA and stored at 4° C.
The capture DNA plasmid (HSV UL13 region in pUC) was linearized by cutting with Xba I, denatured for 15 min at 95° C. and diluted immediately into Reacti-Bind DNA Coating Solution (Pierce, 17250, diluted 1:1 with TE buffer, pH 8) at 1 ng/μL 75 μL/well were added to Corning (#3922 or 9690) white 96-well plates and incubated at room temperature for at least 4 hrs before washing twice with 300 μL/well 0.2×SSC/0.05% Tween-20 (SSC/T buffer). The plates were then incubated overnight at room temperature with 150 μL/well 0.2 N NaOH, 1% IGEPAL and 10 μg/mL herring sperm DNA.
Twenty-seven (27) μL of cell lysate was combined with 45 μL of hybridization solution (final concentration: 3M GuSCN, 50 mM EDTA, 100 μg/ml salmon sperm DNA, 5× Denhardt's solution, 0.25×APE, and 5 ng of the digoxigenin-labeled detection probe). APE is 1.5 M NH4-acetate, 0.15 M ammonium phosphate monobasic, and 5 mM EDTA adjusted to pH 6.0. Mineral oil (50 μL) was added to prevent evaporation. The hybridization plates were incubated at 95° C. for 10 minutes to denature the DNA, then incubated at 42° C. overnight The wells were washed 6× with 300 μL/well SSC/T buffer then incubated with 75 μL/well anti-digoxigenin-HRP-conjugated antibody (Boehringer Mannheim 1207733, 1:5000 in TE) for 30 min at room temperature. The wells were washed 6× with 300 μL/well with PBS/0.05% Tween-20 before 75 μL/well SuperSignal LBA substrate (Pierce) was added. The plates were incubated at room temperature for 30 minutes and chemiluminescence was measured in a Wallac Victor reader.
The following results were obtained for HSV-1.

SMILES | IC50
COc1cc(Nc2nccc(-c3c(-c4ccc(F)cc4)nn4c(NC5CCCC5)cccc34)n2)cc(OC)c1OC [Example 2, N-Cyclopentyl-2-(4-fluorophenyl)-3-[2-(3,4,5-trimethoxyanilino)-4-pyrimidinyl]pyrazolo[1,5-α]pyridin-7-amine] | 400 nM
COc1ccc(-c2nn3c(NC4CCCC4)cccc3c2-c2ccnc(Nc3cccc(C(=O)c4ccccc4)c3)n2)cc1 [Example 5, [3-({4-[7-(Cyclopentylamino)-2-(4-methoxyphenyl)pyrazolo[1,5-α]pyridin-3-yl]-2-pyrimidinyl}amino)phenyl](phenyl)methanone] | 2800 nM
COc1ccc(-c2nn3c(NC4CCCC4)cccc3c2-c2ccnc(Nc3cccc([N+](=O)[O-])c3)n2)cc1 [Example 10, N-Cyclopentyl-2-(4-methoxyphenyl)-3-[2-(3-nitroanilino)-4-pyrimidinyl]pyrazolo[1,5-α]pyridin-7-amine] | 1000 nM
COc1ccc(-c2nn3c(NC4CCCC4)cccc3c2-c2ccnc(Nc3cccc(N)c3)n2)cc1 [Example 12, N^1-{4-[7-(Cyclopentylamino)-2-(4-methoxyphenyl)pyrazolo[1,5-α]pyridin-3-yl]-2-pyrimidinyl}-1,3-benzenediamine] | 700 nM
COc1ccc(-c2nn3c(NC4CCCC4)cccc3c2-c2ccnc(Nc3cccc(N=[N+]=[N-])c3)n2)cc1 [Example 13, 3-[2-(3-Azidoanilino)-4-pyrimidinyl]-N-cyclopentyl-2-(4-methoxyphenyl)pyrazolo[1,5-α]pyridin-7-amine] | 800 nM

Further lines, results first:

IC50 | SMILES
500 nM | Fc1ccc(-c2nn3c(NC4CCCC4)cccc3c2-c2ccnc(Nc3ccccc3)n2)cc1 [Example 1, 3-(2-Anilino-4-pyrimidinyl)-N-cyclopentyl-2-(4-fluorophenyl)pyrazolo[1,5-α]pyridin-7-amine]
1250 nM | COc1ccc(Nc2nccc(-c3c(-c4ccc(F)cc4)nn4c(NC5CCCC5)cccc34)n2)cc1 [Example 3, N-Cyclopentyl-2-(4-fluorophenyl)-3-[2-(4-methoxyanilino)-4-pyrimidinyl]pyrazolo[1,5-α]pyridin-7-amine]
600 nM | Fc1ccc(Nc2nccc(-c3c(-c4ccc(F)cc4)nn4c(NC5CCCC5)cccc34)n2)cc1 [Example 4, N-Cyclopentyl-3-[2-(4-fluoroanilino)-4-pyrimidinyl]-2-(4-fluorophenyl)pyrazolo[1,5-α]pyridin-7-amine]
14000 nM | Fc1ccc(-c2nn3ccc(Cl)cc3c2-c2ccnc(Nc3ccccc3)n2)cc1 [Example 6, 4-[5-Chloro-2-(4-fluorophenyl)pyrazolo[1,5-α]pyridin-3-yl]-N-phenyl-2-pyrimidinamine]
3300 nM | Fc1ccc(-c2nn3ccc(NC4CCCC4)cc3c2-c2ccnc(Nc3ccccc3)n2)cc1 [Example 7, N-[3-(2-Anilino-4-pyrimidinyl)-2-(4-fluorophenyl)pyrazolo[1,5-α]pyridin-5-yl]-N-cyclopentylamine]
160 nM | Fc1ccc(-c2nn3c(NC4CCCC4)cc(Cl)cc3c2-c2ccnc(Nc3ccccc3)n2)cc1 [Example 8, 3-(2-Anilino-4-pyrimidinyl)-5-chloro-N-cyclopentyl-2-(4-fluorophenyl)pyrazolo[1,5-α]pyridin-7-amine]
2000 nM | CCSc1cc(Cl)cc2c(-c3ccnc(Nc4ccccc4)n3)c(-c3ccc(F)cc3)nn12 [Example 9, N-{4-[5-Chloro-7-(ethylsulfanyl)-2-(4-fluorophenyl)pyrazolo[1,5-α]pyridin-3-yl]-2-pyrimidinyl}-N-phenylamine]
700 nM | COc1ccc(-c2nn3c(NC4CCCC4)cccc3c2-c2ccnc(Nc3cccc(CO)c3)n2)cc1 [Example 11, [3-({4-[7-(Cyclopentylamino)-2-(4-methoxyphenyl)pyrazolo[1,5-α]pyridin-3-yl]-2-pyrimidinyl}amino)phenyl]methanol]
